Reference: ChEMBL document CHEMBL1157542, “Design and synthesis of potent and selective BACE-1 inhibitors” (J Med Chem, 2010)

Experiments:
[1] = target: Beta-secretase 1 (Homo sapiens, UniProt P56817); test: biochemical
Description: Inhibition of human BACE1 expressed in Escherichia coli cells (BL21(DE3) by TRF assay

[2] = target: Cathepsin D (Homo sapiens, UniProt P07339)
Sequence of Cathepsin D (P07339 65-162 limits assumed): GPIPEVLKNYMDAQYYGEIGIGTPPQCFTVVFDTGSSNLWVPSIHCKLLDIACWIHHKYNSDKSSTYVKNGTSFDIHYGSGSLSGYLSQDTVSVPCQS
Sequence of Cathepsin D (P07339 169-412 limits assumed): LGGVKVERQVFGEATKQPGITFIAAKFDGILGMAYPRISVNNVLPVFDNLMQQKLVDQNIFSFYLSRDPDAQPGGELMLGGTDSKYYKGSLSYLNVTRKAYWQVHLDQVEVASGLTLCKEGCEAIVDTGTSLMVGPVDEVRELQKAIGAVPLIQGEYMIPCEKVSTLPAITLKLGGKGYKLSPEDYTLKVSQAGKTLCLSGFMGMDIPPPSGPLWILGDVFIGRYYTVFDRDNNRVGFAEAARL
Description: Inhibition of human liver cathepsin D

Sequence of Beta-secretase 1 (P56817 whole entry): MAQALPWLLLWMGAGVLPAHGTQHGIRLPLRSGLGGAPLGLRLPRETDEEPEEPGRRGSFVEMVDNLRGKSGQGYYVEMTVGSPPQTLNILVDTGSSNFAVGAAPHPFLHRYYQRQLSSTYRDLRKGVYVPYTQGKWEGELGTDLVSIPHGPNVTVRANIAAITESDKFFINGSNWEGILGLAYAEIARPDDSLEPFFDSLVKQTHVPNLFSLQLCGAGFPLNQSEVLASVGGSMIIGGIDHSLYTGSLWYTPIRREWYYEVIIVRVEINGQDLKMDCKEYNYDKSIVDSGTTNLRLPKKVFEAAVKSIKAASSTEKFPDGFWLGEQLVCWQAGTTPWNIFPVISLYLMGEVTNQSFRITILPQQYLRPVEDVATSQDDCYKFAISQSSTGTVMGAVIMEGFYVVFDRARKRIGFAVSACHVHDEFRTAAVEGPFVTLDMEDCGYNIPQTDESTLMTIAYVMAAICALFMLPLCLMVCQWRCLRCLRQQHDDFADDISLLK

Row | Compound | Ki [1] [nM] | Ki [2] [nM]
1 | CCCN(CCC)C(=O)c1cccc(C(=O)N[C@@H](COc2cc(F)cc(F)c2)[C@@H](O)C[C@@H](OC)C(=O)NC2CC2)c1 | 220 | –
2 | CCCN(CCC)C(=O)c1cccc(C(=O)N[C@@H](COCc2cc(F)cc(F)c2)[C@@H](O)C[C@@H](OC)C(=O)NC2CC2)c1 | > 10000 | –
3 | CO[C@H](C[C@H](O)[C@H](COc1cc(F)cc(F)c1)NC(=O)c1cc(C(=O)N[C@H](C)c2ccccc2)cc(N(C)CS(C)(=O)=O)c1)C(=O)NCC(C)C | 400 | > 5000
4 | CO[C@H](C[C@H](O)[C@H](COc1cc(F)cc(F)c1)NC(=O)c1cc(C(=O)N[C@H](C)c2ccccc2)cc(N(C)CS(C)(=O)=O)c1)C(=O)Nc1ccc(F)cc1 | 100 | > 5000
5 | CO[C@H](C[C@H](O)[C@H](COCc1ccc(Br)cc1)NC(=O)c1cc(C(=O)N[C@H](C)c2ccccc2)cc(N(C)CS(C)(=O)=O)c1)C(=O)N[C@H](C(=O)NCc1ccccc1)C(C)C | 60 | –
6 | CO[C@H](C[C@H](O)[C@H](COc1cc(F)cc(F)c1)NC(=O)c1cc(C(=O)N[C@H](C)c2ccccc2)cc(N(C)CS(C)(=O)=O)c1)C(=O)NCc1ccccc1 | 1400 | > 5000
7 | CO[C@H](C[C@H](O)[C@H](COc1ccc(Br)cc1)NC(=O)c1cc(C(=O)N[C@H](C)c2ccccc2)cc(N(C)CS(C)(=O)=O)c1)C(=O)N[C@H](C(=O)NCc1ccccc1)C(C)C | 75 | 840
8 | CO[C@H](C[C@H](O)[C@H](COc1cc(F)cc(F)c1)NC(=O)c1cc(C(=O)N[C@H](C)c2ccccc2)cc(N(C)CS(C)(=O)=O)c1)C(=O)NC1CC1 | 1800 | > 5000
9 | CO[C@H](C[C@H](O)[C@H](COc1ccccc1)NC(=O)c1cc(C(=O)N[C@H](C)c2ccccc2)cc(N(C)CS(C)(=O)=O)c1)C(=O)N[C@H](C(=O)NCc1ccccc1)C(C)C | 9 | 460
10 | CO[C@H](C[C@H](O)[C@H](COc1cc(F)cc(F)c1)NC(=O)c1cc(C(=O)N[C@H](C)c2ccccc2)cc(N(C)CS(C)(=O)=O)c1)C(=O)N[C@H](C(=O)NCc1ccccc1)C(C)C | < 1 | 1100
11 | CO[C@H](C[C@H](O)[C@H](COCc1cc(F)cc(F)c1)NC(=O)c1cc(C(=O)N[C@H](C)c2ccccc2)cc(N(C)CS(C)(=O)=O)c1)C(=O)N[C@H](C(=O)NCc1ccccc1)C(C)C | 80 | –
12 | CO[C@H](C[C@H](O)[C@H](COc1cc(F)cc(F)c1)NC(=O)c1cc(C(=O)N[C@H](C)c2ccccc2)cc(N(C)CS(C)(=O)=O)c1)C(=O)Nc1ccccc1 | 200 | > 5000
